# In US12128028B2, “Heterocyclic sulfonamide derivatives and pharmaceutical uses thereof” (METRION BIOSCIENCES LIMITED, priority 2018, dated 2024):
# Biological target: human Kv1.3 (Homo sapiens (Human), UniProt P22001)
# Test: Kv1.3 potency evaluation, automated patch clamp electrophysiology (QPatch HT) in CHO-Kv1.3 cells
# Assay type: cell-based
# Conditions: whole-cell QPatch HT, % inhibition of charge, step to +30 mV, four concentrations, N≥3 cells, read-out: hKv1.3 IC50
# Summary of the method: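 Automated whole-cell patch clamp in CHO cells stably expressing human Kv1.3; steps from −80 to +30 mV (500 ms) at 0.067 Hz. Four cumulative concentrations after vehicle (0.1-0.3% DMSO); charge inhibition vs vehicle fitted by four-parameter logistic for IC50, N≥3 cells.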
# Sequence of human Kv1.3 (P22001 whole entry): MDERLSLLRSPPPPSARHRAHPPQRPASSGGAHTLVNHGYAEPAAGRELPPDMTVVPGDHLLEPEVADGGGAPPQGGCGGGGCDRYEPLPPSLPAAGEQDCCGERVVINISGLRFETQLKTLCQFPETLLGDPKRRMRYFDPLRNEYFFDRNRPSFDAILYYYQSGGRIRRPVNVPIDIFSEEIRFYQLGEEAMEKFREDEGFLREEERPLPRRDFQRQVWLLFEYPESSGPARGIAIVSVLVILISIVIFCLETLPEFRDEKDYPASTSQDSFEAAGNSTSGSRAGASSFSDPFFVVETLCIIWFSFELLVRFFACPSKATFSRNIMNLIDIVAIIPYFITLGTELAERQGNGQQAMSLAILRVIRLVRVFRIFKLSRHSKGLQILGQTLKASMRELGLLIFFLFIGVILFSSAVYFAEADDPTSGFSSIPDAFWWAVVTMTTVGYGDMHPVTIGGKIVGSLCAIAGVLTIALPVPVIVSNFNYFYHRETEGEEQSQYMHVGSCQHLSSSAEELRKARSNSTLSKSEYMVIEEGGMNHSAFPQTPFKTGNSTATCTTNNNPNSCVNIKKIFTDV
row,Compound,IC50 [nM]
1,CC1(C)N=C(C23CC(N(Cc4ccc(Cl)c(Cl)c4)S(=O)(=O)c4ccccc4)(C2)C3)N[C@H]1C(=O)NC1CC1C(F)(F)F (mixture of isomers) [Example 160],97
2,CC1(C)N=C(C23CC(N(Cc4ccc(Cl)c(F)c4)S(=O)(=O)c4ccccc4)(C2)C3)N[C@H]1C(=O)NCC1(C(F)(F)F)CCC1 (mixture of isomers) [Example 162],98
3,CC1(C)N=C(C23CC(N(Cc4ccc(Cl)c(F)c4)S(=O)(=O)c4ccccc4)(C2)C3)N[C@H]1C(=O)NCC(C)(C)C(F)(F)F (mixture of isomers) [Example 163],98
4,CC1(C)N=C(C23CC(N(Cc4ccc(Cl)c(Cl)c4)S(=O)(=O)CCC(F)F)(C2)C3)N[C@H]1C(=O)NCCC(F)(F)F (mixture of isomers) [Example 165],99
5,CC1(C)N=C(C23CC(N(Cc4ccc(Cl)c(F)c4)S(=O)(=O)c4ccccc4)(C2)C3)N[C@H]1C(=O)N1CCC(F)(F)C2(CC2)C1 (mixture of isomers) [Example 166],99
6,CC1(C)N=C(C23CC(N(Cc4ccc(Cl)c(Cl)c4)S(=O)(=O)c4ccccc4)(C2)C3)N[C@H]1C(=O)N1CCC(F)(F)C2(CC2)C1 (mixture of isomers) [Example 167],99
7,CC1(C)N=C(C23CC(N(Cc4ccc(Cl)c(F)c4)S(=O)(=O)c4ccccc4)(C2)C3)N[C@H]1C(=O)NC(C1CC1)C1CC1 (mixture of isomers) [Example 168],99
8,CC1(C)N=C(C23CC(N(Cc4ccc(Cl)c(F)c4)S(=O)(=O)c4ccccc4)(C2)C3)N[C@H]1C(=O)NC1CC1C(F)(F)F (mixture of isomers) [Example 169],100
9,CC1(C)N=C(C23CC(N(Cc4ccc(Cl)cc4)S(=O)(=O)C4CCC4)(C2)C3)N[C@H]1C(=O)NCCC(F)(F)F (mixture of isomers) [Example 170],101
10,CC1(C)N=C(C23CC(N(Cc4ccc(Cl)c(F)c4)S(=O)(=O)c4ccccc4)(C2)C3)N[C@H]1C(=O)N1CC[C@H](C(F)(F)F)C1 (mixture of isomers) [Example 171],102
11,CC1(C)N=C(C23CC(N(Cc4ccc(Cl)c(F)c4)S(=O)(=O)c4ccccc4)(C2)C3)N[C@H]1C(=O)N1CC(C(F)(F)F)C1 (mixture of isomers) [Example 172],103
12,CCCS(=O)(=O)N(Cc1ccc(Cl)c(Cl)c1)C12CC(C3=NC(C)(C)[C@H](C(=O)NC4CCC(F)(F)CC4)N3)(C1)C2 (mixture of isomers) [Example 174],103
13,CC(C)(C)NC(=O)[C@@H]1NC(C23CC(N(Cc4ccc(Cl)c(F)c4)S(=O)(=O)c4ccccc4)(C2)C3)=NC1(C)C (mixture of isomers) [Example 175],104
14,CC(F)(F)CCS(=O)(=O)N(Cc1ccc(Cl)c(Cl)c1)C12CC(C3=NC(C)(C)[C@H](C(=O)N4CCC(F)(F)CC4)N3)(C1)C2 (mixture of isomers) [Example 176],104
15,CC1(C)N=C(C23CC(N(Cc4ccc(Cl)c(Cl)c4)S(=O)(=O)CCC(F)F)(C2)C3)N[C@H]1C(=O)NC1CC(C(F)F)C1 (mixture of isomers) [Example 177],104
16,CC1(C)N=C(C23CC(N(Cc4ccc(Cl)c(F)c4)S(=O)(=O)c4ccccc4)(C2)C3)N[C@H]1C(=O)N1CCC[C@@H](C(F)(F)F)C1 (mixture of isomers) [Example 178],105
17,CC1(C)N=C(C23CC(N(Cc4ccc(Cl)c(Cl)c4)S(=O)(=O)CCC(F)F)(C2)C3)N[C@H]1C(=O)NC[C@H]1CC1(F)F (mixture of isomers) [Example 179],105
18,CC1(C)N=C(C23CC(N(Cc4ccc(Cl)cc4)S(=O)(=O)c4ccccc4O)(C2)C3)N[C@H]1C(=O)NCCC(F)(F)F (mixture of isomers) [Example 180],106
19,CN(CC(F)(F)C(F)(F)F)C(=O)[C@@H]1NC(C23CC(N(Cc4ccc(Cl)c(F)c4)S(=O)(=O)c4ccccc4)(C2)C3)=NC1(C)C (mixture of isomers) [Example 181],106
20,CCCS(=O)(=O)N(Cc1ccc(Cl)c(Cl)c1)C12CC(C3=NC(C)(C)[C@H](C(=O)N4C5CCC4CC(F)(F)C5)N3)(C1)C2 (mixture of isomers) [Example 190],113

# Second part, the molecule after the results:
row,IC50 [nM],Compound
1,108,CN(C[C@H]1CC1(F)F)C(=O)[C@@H]1NC(C23CC(N(Cc4ccc(Cl)c(Cl)c4)S(=O)(=O)CCC(F)F)(C2)C3)=NC1(C)C (mixture of isomers) [Example 183]
2,109,CC1N=C(C23CC(N(Cc4ccc(C(F)(F)F)cc4)S(=O)(=O)c4ccc(F)cc4)(C2)C3)N[C@@]1(C)C(=O)NCC1CCC1 (mixture of isomers) [Example 184]
3,109,CC1(C)N=C(C23CC(N(Cc4ccc(Cl)c(F)c4)S(=O)(=O)c4ccccc4)(C2)C3)N[C@H]1C(=O)N1CCCC1 (mixture of isomers) [Example 185]
4,110,CCCS(=O)(=O)N(Cc1ccc(Cl)c(Cl)c1)C12CC(C3=NC(C)(C)[C@H](C(=O)N4CC5CCC(C4)C5(F)F)N3)(C1)C2 (mixture of isomers) [Example 187]
5,112,CC1(C)N=C(C23CC(N(Cc4ccc(Cl)c(F)c4)S(=O)(=O)c4ccccc4)(C2)C3)N[C@H]1C(=O)N1CCC(C(F)(F)F)CC1 (mixture of isomers) [Example 188]
6,112,CC1(C)N=C(C23CC(N(Cc4ccc(Cl)c(Cl)c4)S(=O)(=O)c4ccccc4)(C2)C3)N[C@H]1C(=O)NC1CC1C(F)(F)F (mixture of isomers) [Example 189]
7,114,CC1(C)N=C(C23CC(N(Cc4ccc(Cl)cc4)S(=O)(=O)c4ccccc4[N+](=O)[O-])(C2)C3)N[C@H]1C(=O)NCCC(F)(F)F (mixture of isomers) [Example 191]
8,121,CC1(C)N=C(C23CC(N(Cc4ccc(Cl)c(Cl)c4)S(=O)(=O)CCC(F)F)(C2)C3)N[C@H]1C(=O)N1CCC(F)(F)CC1 (mixture of isomers) [Example 194]
9,124,CC1(C)N=C(C23CC(N(Cc4ccc(Cl)c(Cl)c4)S(=O)(=O)c4ccccc4)(C2)C3)N[C@H]1C(=O)N1CC2(C1)CC(F)(F)C2 (mixture of isomers) [Example 195]
10,125,CC(C)NC(=O)[C@]1(C)CN=C(C23CC(N(Cc4ccc(C(F)(F)F)cc4)S(=O)(=O)c4ccc(F)cc4)(C2)C3)N1 (mixture of isomers) [Example 196]
11,126,CC1(C)N=C(C23CC(N(Cc4ccc(C(F)(F)F)c(F)c4)S(=O)(=O)c4ccccc4)(C2)C3)N[C@H]1C(=O)NCCC(F)(F)F (mixture of isomers) [Example 197]
12,126,CC1(C)N=C(C23CC(N(Cc4ccc(Cl)c(F)c4)S(=O)(=O)c4ccccc4)(C2)C3)N[C@H]1C(=O)N1CC2(C1)CC(F)(F)C2 (mixture of isomers) [Example 198]
13,129,C[C@]1(C(=O)NC2CCC2)CN=C(C23CC(N(Cc4ccc(C(F)(F)F)cc4)S(=O)(=O)c4ccc(F)cc4)(C2)C3)N1 (mixture of isomers) [Example 199]
14,129,CC1(C)N=C(C23CC(N(Cc4ccc(Cl)c(F)c4)S(=O)(=O)c4ccccc4)(C2)C3)N[C@H]1C(=O)N1CCC(F)(F)C(C)(C)C1 (mixture of isomers) [Example 200]
15,131,CC1(C)N=C(C23CC(N(Cc4ccc(Cl)cc4)S(=O)(=O)CCC(F)(F)F)(C2)C3)N[C@H]1C(=O)NCCC(F)(F)F (mixture of isomers) [Example 201]
16,134,C[C@]1(C(=O)NCCC(F)(F)F)CN=C(C23CC(N(Cc4ccc(C(F)(F)F)cc4)S(=O)(=O)c4ccc(F)cc4)(C2)C3)N1 (mixture of isomers) [Example 202]
17,134,CC(C)(C)CNC(=O)[C@@H]1NC(C23CC(N(Cc4ccc(Cl)c(Cl)c4)S(=O)(=O)CCC(C)(F)F)(C2)C3)=NC1(C)C (mixture of isomers) [Example 203]
18,135,CC1(C)N=C(C23CC(N(Cc4ccc(Cl)c(Cl)c4)S(=O)(=O)CCC(F)F)(C2)C3)N[C@H]1C(=O)NC1CC(C(F)F)C1 (mixture of isomers) [Example 204]
19,136,CC1(C)N=C(C23CC(N(Cc4ccc(Cl)c(Cl)c4)S(=O)(=O)CCC(F)F)(C2)C3)N[C@H]1C(=O)NCC1CC(F)(F)C1 (mixture of isomers) [Example 205]
20,137,CC1(C)N=C(C23CC(N(Cc4ccc(Cl)cc4)S(=O)(=O)CCCC(F)(F)F)(C2)C3)N[C@H]1C(=O)NCCC(F)(F)F (mixture of isomers) [Example 206]
21,137,CN(CCC(F)(F)F)C(=O)[C@@H]1NC(C23CC(N(Cc4ccc(Cl)c(Cl)c4)S(=O)(=O)CCC(F)F)(C2)C3)=NC1(C)C (mixture of isomers) [Example 207]
22,144,O=C(NCC1CCC1)[C@H]1CN=C(C23CC(N(Cc4ccc(C(F)(F)F)cc4)S(=O)(=O)c4ccc(F)cc4)(C2)C3)N1 (mixture of isomers) [Example 209]
23,144,CC1(C)N=C(C23CC(N(Cc4ccc(Cl)c(Cl)c4)S(=O)(=O)CCC(F)F)(C2)C3)N[C@H]1C(=O)NCC(F)(F)C(F)(F)F (mixture of isomers) [Example 210]
24,148,CC1N=C(C23CC(N(Cc4ccc(C(F)(F)F)cc4)S(=O)(=O)c4ccc(F)cc4)(C2)C3)N[C@@]1(C)C(=O)NCCC(F)(F)F (mixture of isomers) [Example 211]
25,149,CC1(C)N=C(C23CC(N(Cc4ccc(Cl)cc4)S(=O)(=O)N4CCC(F)(F)C4)(C2)C3)N[C@H]1C(=O)NCCC(F)(F)F (mixture of isomers) [Example 212]
26,152,CC(C)NC(=O)[C@@]1(C)CN=C(C23CC(N(Cc4ccc(C(F)(F)F)cc4)S(=O)(=O)c4ccc(F)cc4)(C2)C3)N1C (mixture of isomers) [Example 213]
27,159,C[C@]1(C(=O)NCC2CCC2)CN=C(C23CC(N(Cc4ccc(C(F)(F)F)cc4)S(=O)(=O)c4ccc(F)cc4)(C2)C3)N1 (mixture of isomers) [Example 214]
28,159,CN(CC(F)(F)C(F)(F)F)C(=O)[C@@H]1NC(C23CC(N(Cc4ccc(Cl)c(Cl)c4)S(=O)(=O)c4ccccc4)(C2)C3)=NC1(C)C (mixture of isomers) [Example 215]
